Assay results published in patent US20120316203A1, “Compositions and Methods for Inhibition of Cancers” (THE OHIO STATE UNIVERSITY RESEARCH FOUNDATION, priority 2009, published 2012).

Assays:
[1] = test system: p53, p21, p27, cdk2, and cyclin A in A2780 cells; assay: Immunoblot of cell cycle regulatory proteins; format: cell-based, human; details: Western blot
Description: Cells in RPMI 1640 were treated with DMSO (control) or HO-3867 (10 μmol/L) for 24 hours. Equal volumes of DMSO (0.1% v/v) were present in each treatment. Following treatment, the cell lysates were prepared in non-denaturing lysis buffer containing 10 mmol/L Tris-HCl (pH 7.4), 150 mmol/L NaCl, 1% Triton X-100, 1 mmol/L EDTA, 1 mmol/L EGTA, 0.3 mmol/L phenylmethyl-sulfonyl fluoride, 0.2 mmol/L sodium orthovanadate, 0.5% NP40, 1 μg/mL aprotinin, and 1 μg/mL leupetin. The lysates were centrifuged at 10,000×g for 20 minutes at 4° C. and the supernatant was separated. The protein concentration in the lysates was determined using a Pierce detergent-compatible protein assay kit. For Western blotting, 25 to 50 μg of protein lysate per sample were denatured in 2×SDS-PAGE sample buffer and subjected to SDS-PAGE on a 10% tris-glycine gel. The separated proteins were transferred to a polyvinylidene fluoride membrane and were blocked with 5% nonfat milk powder (w/v) in TBST (10 mmol/L Tris, 10 mmol/L NaCl, 0.1% Tween 20) for 1 hour at room temperature or overnight at 4° C. […] The bound antibodies were detected with horseradish peroxidase-labeled sheep anti-mouse IgG or horseradish peroxidase-labeled donkey anti-rabbit IgG using an enhanced chemiluminescence detection system (ECL Advanced kit). Protein expressions were determined using the Image Gauge v. […]

[2] = Superoxide radical-scavenging by EPR (xanthine/xanthine oxidase, DEPMPO competition); details: 100 μM compound versus 1 mM DEPMPO
Description: Electron paramagnetic resonance (EPR) spectroscopy was used to quantitatively determine the relative superoxide-scavenging ability of the DAPs in comparison with DEPMPO, a known superoxide scavenger. Superoxide radicals were generated using an aerated solution of PBS (pH 7.4) containing xanthine (0.2 mM), xanthine oxidase (0.02 U/ml), and diethylenetriamine pentaacetic acid (0.1 mM). The superoxide radicals (O2^−) generated by the xanhine-xanthine oxidase reaction were reacted with DEPMPO (1 mM) to form a paramagnetic adduct (DEPMPO-OOH), which was detected using X-band (9.8 GHz) EPR spectroscopy. In separate experimental groups, […], or SOD (500 U/ml) was added to the reaction mixture. […] The generation of the DEPMPO-OOH adduct was measured at 10 min after initiation of the reaction.
Both N-hydroxypyrroline and nitroxide have antioxidant properties including SOD- and catalase-mimetic activity. Therefore, we determined the superoxide radical-scavenging ability of DAPs using a competitive reaction in the presence of DEPMPO. Superoxide radicals were generated using an aerobic solution of xanthine and xanthine oxidase and detected as DEPMPO-OOH adduct by EPR spectroscopy. The DAP compounds (100 μM) were used to compete with 1 mM DEPMPO for the superoxide ions. SOD (4.2 μM) was used as a positive control.

[3] = test system: STAT3 and apoptotic markers in HSMC; assay: Western blot of STAT3 signaling and apoptotic markers in HSMC; format: cell-based, human; details: 10 μM, 24 h
Description: Cells were grown in RPMI 1640 medium and treated with DMSO (control) or HO-3867 ([…]). Equal volumes of DMSO (0.1% v/v) were present in both groups. After treatment, cell lysates were prepared in nondenaturing lysis buffer (10 mM Tris-HCl (pH 7.4), 150 mM NaCl, 1% Triton X-100, 1 mM EDTA, 1 mM EGTA, 0.3 mM phenylmethylsulfonyl fluoride, 0.2-mM sodium orthovanadate, 0.5% NP-40, 1 lag/ml aprotinin, and 1 lag/ml leupeptin). Cell lysates were centrifuged at 10,000 RPM for 20 min at 4° C., and the supernatant was separated. The protein concentration in the lysates was determined using a Pierce detergent-compatible protein assay kit. For Western blotting, 25 to 50 lag of protein lysate per sample was denatured in 2× sample buffer and subjected to SDS-PAGE on a 10 or 12% Tris-glycine gel. The separated proteins were transferred to a PVDF membrane and then the membrane was blocked with 5% nonfat milk powder (w/v) in 10 mM Tris, 100 mM NaCl, 0.1% Tween 20 for 1 h at room temperature or overnight at 4° C. The membranes were incubated with the primary antibodies described above. The bound antibodies were detected with horseradish peroxidase (HRP)-labeled sheep anti-mouse IgG or HRP-labeled donkey anti-rabbit IgG (Amersham) using an enhanced chemiluminescence detection system (ECL Advanced Kit). Protein expression was determined using Image Gauge version 3.45.

A2780 and SKOV3 cells = assay: Cell-migration (wound-healing) assay; format: cell-based, human; details: 10 μM
Description: Cell-migration assay was performed by wound-healing method. Cells were plated at equal density and grown to 90% confluence. Wounds were created using a sterile pipette tip. Cells were then rinsed with medium and replaced with the fresh medium and incubated with HO-3867 (10 μM). Areas of wound were marked and photographed at various time-points with a phase-contrast microscope. Cell-invasive assay was measured by an in vitro Boyden chamber assay. Briefly, 1×10^5 cells in 0.5 ml of serum-free RPMI 1640 medium were added to the wells of 8-μm-diameter pore membrane Boyden chambers, either coated with (BD Biosciences, Franklin Lake, N.J.) or without (Corning, Corning, N.Y.) Matrigel. Cells were allowed to invade for 24 hours. Cells that had not penetrated the filters were removed by scrubbing with cotton swabs. Chambers were fixed in 100% methanol for 2 min, stained in 0.5% crystal violet for 2 min, rinsed in PBS and examined using a bright-field microscope. Values for invasion were obtained by counting five fields per membrane and represented as the average of three independent experiments performed over multiple days.

[4] = molecular target: T1, FAS in A2780 and SKOV3 cells (Homo sapiens, UniProt P49327); assay: Fatty acid synthase activity assay; format: cell-based; details: 10 μM, 12 or 24 h, both cell lines
T1 construct: endogenous in cells; host or cells: A2780 and SKOV3 human ovarian cancer cells
T1 sequence (P49327 whole entry): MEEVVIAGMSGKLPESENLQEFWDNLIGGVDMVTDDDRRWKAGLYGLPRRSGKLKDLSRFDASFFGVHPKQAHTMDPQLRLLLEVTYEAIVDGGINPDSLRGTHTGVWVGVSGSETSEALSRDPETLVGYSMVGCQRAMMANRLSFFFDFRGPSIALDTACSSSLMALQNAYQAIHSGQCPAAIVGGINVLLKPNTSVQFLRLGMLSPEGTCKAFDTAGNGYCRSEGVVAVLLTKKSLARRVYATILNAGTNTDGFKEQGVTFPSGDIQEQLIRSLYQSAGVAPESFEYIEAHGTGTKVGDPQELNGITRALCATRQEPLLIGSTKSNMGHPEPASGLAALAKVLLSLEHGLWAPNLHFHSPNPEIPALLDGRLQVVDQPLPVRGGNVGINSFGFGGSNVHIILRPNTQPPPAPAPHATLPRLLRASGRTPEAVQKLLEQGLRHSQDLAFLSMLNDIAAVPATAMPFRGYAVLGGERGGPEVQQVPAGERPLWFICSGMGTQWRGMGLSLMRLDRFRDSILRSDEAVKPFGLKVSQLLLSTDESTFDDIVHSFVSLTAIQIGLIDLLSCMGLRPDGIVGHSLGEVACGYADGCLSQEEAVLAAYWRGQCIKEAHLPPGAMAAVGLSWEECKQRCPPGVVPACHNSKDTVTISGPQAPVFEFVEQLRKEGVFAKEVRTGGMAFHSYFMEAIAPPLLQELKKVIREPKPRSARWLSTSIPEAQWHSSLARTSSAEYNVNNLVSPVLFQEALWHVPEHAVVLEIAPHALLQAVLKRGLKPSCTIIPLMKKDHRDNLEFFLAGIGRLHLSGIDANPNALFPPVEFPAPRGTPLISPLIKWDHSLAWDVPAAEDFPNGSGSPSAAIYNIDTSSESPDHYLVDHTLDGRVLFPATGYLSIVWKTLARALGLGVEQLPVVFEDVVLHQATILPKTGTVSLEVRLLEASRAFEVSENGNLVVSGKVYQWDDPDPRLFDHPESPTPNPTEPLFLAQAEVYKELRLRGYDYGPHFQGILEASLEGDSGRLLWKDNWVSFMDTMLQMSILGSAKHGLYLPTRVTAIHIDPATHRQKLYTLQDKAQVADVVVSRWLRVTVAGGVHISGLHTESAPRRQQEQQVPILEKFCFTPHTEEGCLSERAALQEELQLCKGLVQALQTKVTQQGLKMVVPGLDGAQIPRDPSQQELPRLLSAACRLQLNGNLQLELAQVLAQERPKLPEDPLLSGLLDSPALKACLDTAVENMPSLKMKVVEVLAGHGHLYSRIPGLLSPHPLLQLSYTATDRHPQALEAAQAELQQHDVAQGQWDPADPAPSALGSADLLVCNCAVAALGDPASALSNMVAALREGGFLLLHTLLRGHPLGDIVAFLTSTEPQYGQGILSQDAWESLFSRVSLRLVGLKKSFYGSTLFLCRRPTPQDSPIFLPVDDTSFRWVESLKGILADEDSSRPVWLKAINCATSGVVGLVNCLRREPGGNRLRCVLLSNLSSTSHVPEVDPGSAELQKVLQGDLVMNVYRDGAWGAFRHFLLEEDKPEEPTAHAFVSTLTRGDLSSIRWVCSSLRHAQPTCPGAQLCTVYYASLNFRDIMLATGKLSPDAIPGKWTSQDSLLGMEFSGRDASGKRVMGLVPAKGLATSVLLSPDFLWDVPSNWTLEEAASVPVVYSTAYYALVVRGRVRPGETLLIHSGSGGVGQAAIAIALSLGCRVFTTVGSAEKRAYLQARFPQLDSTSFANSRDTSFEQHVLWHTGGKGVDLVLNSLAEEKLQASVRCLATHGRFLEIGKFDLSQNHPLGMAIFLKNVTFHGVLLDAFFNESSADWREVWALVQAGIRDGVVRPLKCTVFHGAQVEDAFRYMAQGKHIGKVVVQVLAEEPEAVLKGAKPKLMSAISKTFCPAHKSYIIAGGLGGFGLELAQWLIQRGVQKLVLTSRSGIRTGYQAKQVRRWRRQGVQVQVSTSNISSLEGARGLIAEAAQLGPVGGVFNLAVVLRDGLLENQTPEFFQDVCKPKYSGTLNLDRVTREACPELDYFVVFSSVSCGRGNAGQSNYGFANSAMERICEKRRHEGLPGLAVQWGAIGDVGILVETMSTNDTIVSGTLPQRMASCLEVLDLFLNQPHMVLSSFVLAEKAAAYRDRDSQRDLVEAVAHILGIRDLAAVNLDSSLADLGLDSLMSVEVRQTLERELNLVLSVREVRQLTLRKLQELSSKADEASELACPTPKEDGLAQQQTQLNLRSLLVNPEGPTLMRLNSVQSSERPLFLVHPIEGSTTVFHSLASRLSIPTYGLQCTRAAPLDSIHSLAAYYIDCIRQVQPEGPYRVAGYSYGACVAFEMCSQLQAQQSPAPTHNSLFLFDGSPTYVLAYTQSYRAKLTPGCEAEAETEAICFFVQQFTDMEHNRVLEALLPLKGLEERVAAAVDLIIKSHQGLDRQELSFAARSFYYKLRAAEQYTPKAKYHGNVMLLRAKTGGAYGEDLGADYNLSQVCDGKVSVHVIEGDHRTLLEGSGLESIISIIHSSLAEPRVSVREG
Description: The FAS activity was determined spectrophotometrically at 37° C. in particle-free supernatants by measuring the decrease of absorption at 340 nm due to oxidation of NADPH.

**Q.** Which “cdk2 and cyclin-A levels” value [1] does the source give for `CC1(C)C=C(CN2C/C(=C\c3ccc(F)cc3)C(=O)/C(=C/c3ccc(F)cc3)C2)C(C)(C)N1O` [HO-3867, 1-[(1-oxyl-2,2,5,5-tetramethyl-2,5-dihydro-1H-pyrrol-3-yl)methyl]-(3E,5E)-3,5-bis(4-fluorobenzylidene)piperidin-4-one] here?
**A.** Its value is “significantly decreased”.

**Q.** What about the “levels of p53 and p21” value [1] of the same compound?
**A.** The value was “significantly upregulated”.

**Q.** And the “diminution of the DEPMPO-OOH concentration” value [2]?
**A.** The value was −50%.

**Q.** What about the “activation of STAT3 or apoptotic markers in HSMC” value [3] of the same compound?
**A.** The value was “did not induce any significant change”.

**Q.** And the cell migration (A2780 and SKOV3 cells; 24 hours, versus untreated cells)?
**A.** The cell migration was “significant inhibition”.

**Q.** And the VEGF-induced migration (A2780 and SKOV3 cells; 24-h incubation, versus VEGF group)?
**A.** Its VEGF-induced migration is “significantly inhibited”.

**Q.** And the FAS activity [4]?
**A.** Its FAS activity is “significantly reduced”.
